Test results from patent publication US20210254272A1, “TEXTILES HAVING ANTIMICROBIAL PROPERTIES” (Livinguard AG, priority 2015, published 2021).

Test: Leaching test: 100 g fabric soaked in 10 liters stagnant distilled water, 3 days (72 hours)
Format: physicochemical
Conditions: for Leaching of active ingredients / Leaching Test-Leaching of active ingredients: pad process; for Leaching of active ingredients: cured 180° C. 2 min; for Leaching Test-Leaching of active ingredients: 2 min
Experimental: (§1) The test procedure for leaching was as follows: 100 g (grams) of fabric as well as control fabrics were soaked in 10 liters of stagnant distilled water in a closed wide mouth jar. After 3 days (72 hours), the water samples were tested for leached substances as per standard analytical methods.
as §1, with “methods. A weight of 100 g fabric was chosen because in the preferred embodiment of the water filter as described further below, each filter comprises a strip of fabric with 210 g/m^2, 3 meters long and 0.16 meters wide, which corresponds to 100 g of fabric.” for “methods.”

CCCCCCCCCCCCCCCCCC[N+](C)(C)CCC[Si](OC)(OC)OC [Organosilane, dimethyloctadecyl[3-(trimethoxysilyl)propyl] ammonium chloride]
Leaching of active ingredients (in ppm) (exhaust 80° C., 1% o.w.f, 60 min, curing dwell time at 190° C. (title): 3.0 min): 34 ppm
Leaching of active ingredients (in ppm) (exhaust 80° C., 60 min, dosage 1% o.w.f (test up to 5% o.w.f)): 3 ppm
Leaching of active ingredients (in ppm) (exhaust 80° C., 60 min, dosage 2% o.w.f): 22 ppm
Leaching of active ingredients (in ppm) (exhaust 80° C., 60 min, dosage 3% o.w.f): 38 ppm
Leaching of active ingredients (in ppm) (exhaust 80° C., 60 min, dosage 4% o.w.f): 52 ppm
Leaching of active ingredients (in ppm) (exhaust 80° C., 60 min, dosage 5% o.w.f): 72 ppm
Leaching of active ingredients (in ppm) (exhaust 80 ° C., solution dosage 1% o.w.f, process time 10 min): 40 ppm
Leaching of active ingredients (in ppm) (exhaust 80 ° C., solution dosage 1% o.w.f, process time 20 min): 29 ppm
Leaching of active ingredients (in ppm) (exhaust 80 ° C., solution dosage 1% o.w.f, process time 30 min): 25 ppm
Leaching of active ingredients (in ppm) (exhaust 80 ° C., solution dosage 1% o.w.f, process time 40 min): 18 ppm
Leaching of active ingredients (in ppm) (exhaust 80 ° C., solution dosage 1% o.w.f, process time 50 min): 15 ppm
Leaching of active ingredients (in ppm) (exhaust 80 ° C., solution dosage 1% o.w.f, process time 55 min): 6 ppm
Leaching of active ingredients (in ppm) (exhaust 80 ° C., solution dosage 1% o.w.f, process time 60 min): 2 ppm
Leaching of active ingredients (in ppm) (exhaust 80 ° C., solution dosage 1% o.w.f, process time 70 min): 3 ppm
Leaching of active ingredients (in ppm) (exhaust 80 ° C., solution dosage 1% o.w.f, process time 80 min): 4 ppm
Leaching of active ingredients (in ppm) (exhaust 80 ° C., solution dosage 1% o.w.f, process time 90 min): 7 ppm
limit on the quantity of the agent that can be adhered to the textile in a non-leaching or substantially non-leaching manner (from Experimental examples I.1 and I.4): about 0.7 % o.w.f.
Leaching of active ingredients (mixture 1 gm/lit each): 11 ppm
Leaching of active ingredients (mixture 1 gm/lit each, after Washing): 0.2 ppm
Leaching of active ingredients (mixture 5 gm/lit each): 22 ppm
Leaching of active ingredients (mixture 5 gm/lit each, after Washing): 0.5 ppm
Leaching of active ingredients (mixture 10 gm/lit each): 32 ppm
Leaching of active ingredients (mixture 10 gm/lit each, after Washing): 0.7 ppm
Leaching Test-Leaching of active ingredients (single agent 5 gm/lit, curing 120° C.): 8 ppm
Leaching Test-Leaching of active ingredients (single agent 5 gm/lit, curing 140° C.): 6 ppm
Leaching Test-Leaching of active ingredients (single agent 5 gm/lit, curing 150° C.): 5 ppm
Leaching Test-Leaching of active ingredients (single agent 5 gm/lit, curing 160° C.): 3 ppm
Leaching Test-Leaching of active ingredients (single agent 5 gm/lit, curing 180° C.): 1 ppm
Leaching Test-Leaching of active ingredients (single agent 10 gm/lit, curing 120° C.): 17 ppm
Leaching Test-Leaching of active ingredients (single agent 10 gm/lit, curing 140° C.): 13 ppm
Leaching Test-Leaching of active ingredients (single agent 10 gm/lit, curing 150° C.): 10 ppm
Leaching Test-Leaching of active ingredients (single agent 10 gm/lit, curing 160° C.): 9 ppm
Leaching Test-Leaching of active ingredients (single agent 10 gm/lit, curing 180° C.): 1 ppm
Leaching of active ingredient (in ppm) (solution dosage 0.10% o.w.f, exhaust temperature 40° C., process time 60 min): 0 ppm
Leaching of active ingredient (in ppm) (solution dosage 0.10% o.w.f, exhaust temperature 60° C., process time 60 min): 0 ppm
Leaching of active ingredient (in ppm) (solution dosage 0.10% o.w.f, exhaust temperature 65° C., process time 60 min): 0 ppm
Leaching of active ingredient (in ppm) (solution dosage 0.10% o.w.f, exhaust temperature 70° C., process time 60 min): 0 ppm
Leaching of active ingredient (in ppm) (solution dosage 0.10% o.w.f, exhaust temperature 75° C., process time 60 min): 0 ppm
Leaching of active ingredient (in ppm) (solution dosage 0.10% o.w.f, exhaust temperature 80° C., process time 60 min): 0 ppm
Leaching of active ingredient (in ppm) (solution dosage 0.10% o.w.f, exhaust temperature 85° C., process time 60 min): 1 ppm
Leaching of active ingredient (in ppm) (solution dosage 0.10% o.w.f, exhaust temperature 90° C., process time 60 min): 2 ppm
Leaching of active ingredient (in ppm) (solution dosage 0.10% o.w.f, exhaust temperature 95° C., process time 60 min): 3 ppm
Leaching of active ingredient (in ppm) (solution dosage 0.20% o.w.f, exhaust temperature 40° C., process time 60 min): 0 ppm
Leaching of active ingredient (in ppm) (solution dosage 0.20% o.w.f, exhaust temperature 60° C., process time 60 min): 0 ppm
Leaching of active ingredient (in ppm) (solution dosage 0.20% o.w.f, exhaust temperature 65° C., process time 60 min): 0 ppm
Leaching of active ingredient (in ppm) (solution dosage 0.20% o.w.f, exhaust temperature 70° C., process time 60 min): 0 ppm
Leaching of active ingredient (in ppm) (solution dosage 0.20% o.w.f, exhaust temperature 75° C., process time 60 min): 0 ppm
Leaching of active ingredient (in ppm) (solution dosage 0.20% o.w.f, exhaust temperature 80° C., process time 60 min): 0 ppm
Leaching of active ingredient (in ppm) (solution dosage 0.20% o.w.f, exhaust temperature 85° C., process time 60 min): 3 ppm
Leaching of active ingredient (in ppm) (solution dosage 0.20% o.w.f, exhaust temperature 90° C., process time 60 min): 3 ppm
Leaching of active ingredient (in ppm) (solution dosage 0.20% o.w.f, exhaust temperature 95° C., process time 60 min): 4 ppm
Leaching of active ingredient (in ppm) (solution dosage 0.50% o.w.f, exhaust temperature 40° C., process time 60 min): 0 ppm
Leaching of active ingredient (in ppm) (solution dosage 0.50% o.w.f, exhaust temperature 60° C., process time 60 min): 2 ppm
Leaching of active ingredient (in ppm) (solution dosage 0.50% o.w.f, exhaust temperature 65° C., process time 60 min): 1 ppm
Leaching of active ingredient (in ppm) (solution dosage 0.50% o.w.f, exhaust temperature 70° C., process time 60 min): 1 ppm
Leaching of active ingredient (in ppm) (solution dosage 0.50% o.w.f, exhaust temperature 75° C., process time 60 min): 1 ppm
Leaching of active ingredient (in ppm) (solution dosage 0.50% o.w.f, exhaust temperature 80° C., process time 60 min): 1 ppm
Leaching of active ingredient (in ppm) (solution dosage 0.50% o.w.f, exhaust temperature 85° C., process time 60 min): 4 ppm
Leaching of active ingredient (in ppm) (solution dosage 0.50% o.w.f, exhaust temperature 90° C., process time 60 min): 5 ppm
Leaching of active ingredient (in ppm) (solution dosage 0.50% o.w.f, exhaust temperature 95° C., process time 60 min): 6 ppm
Leaching of active ingredient (in ppm) (solution dosage 0.80% o.w.f, exhaust temperature 40° C., process time 60 min): 0 ppm
Leaching of active ingredient (in ppm) (solution dosage 0.80% o.w.f, exhaust temperature 60° C., process time 60 min): 3 ppm
Leaching of active ingredient (in ppm) (solution dosage 0.80% o.w.f, exhaust temperature 65° C., process time 60 min): 3 ppm
Leaching of active ingredient (in ppm) (solution dosage 0.80% o.w.f, exhaust temperature 70° C., process time 60 min): 2 ppm
Leaching of active ingredient (in ppm) (solution dosage 0.80% o.w.f, exhaust temperature 75° C., process time 60 min): 1 ppm
Leaching of active ingredient (in ppm) (solution dosage 0.80% o.w.f, exhaust temperature 80° C., process time 60 min): 1 ppm
Leaching of active ingredient (in ppm) (solution dosage 0.80% o.w.f, exhaust temperature 85° C., process time 60 min): 5 ppm
Leaching of active ingredient (in ppm) (solution dosage 0.80% o.w.f, exhaust temperature 90° C., process time 60 min): 6 ppm
Leaching of active ingredient (in ppm) (solution dosage 0.80% o.w.f, exhaust temperature 95° C., process time 60 min): 8 ppm
Leaching of active ingredient (in ppm) (solution dosage 1.00% o.w.f, exhaust temperature 40° C., process time 60 min): 0 ppm
Leaching of active ingredient (in ppm) (solution dosage 1.00% o.w.f, exhaust temperature 60° C., process time 60 min): 6 ppm
Leaching of active ingredient (in ppm) (solution dosage 1.00% o.w.f, exhaust temperature 65° C., process time 60 min): 6 ppm
Leaching of active ingredient (in ppm) (solution dosage 1.00% o.w.f, exhaust temperature 70° C., process time 60 min): 3 ppm
Leaching of active ingredient (in ppm) (solution dosage 1.00% o.w.f, exhaust temperature 75° C., process time 60 min): 2 ppm
Leaching of active ingredient (in ppm) (solution dosage 1.00% o.w.f, exhaust temperature 80° C., process time 60 min): 1 ppm
Leaching of active ingredient (in ppm) (solution dosage 1.00% o.w.f, exhaust temperature 85° C., process time 60 min): 7 ppm
Leaching of active ingredient (in ppm) (solution dosage 1.00% o.w.f, exhaust temperature 90° C., process time 60 min): 9 ppm
Leaching of active ingredient (in ppm) (solution dosage 1.00% o.w.f, exhaust temperature 95° C., process time 60 min): 10 ppm
